Measurements from PubChem BioAssay AID2060501 (Molecular Pharmacology Branch, DTP, NCI, 2025).

System: 282377-053-R-J1-PDC complex spheroids, viability
Experiment: Anticancer human tumor 282377-053-R-J1-PDC patient-derived colon adenocarcinoma cell line growth inhibition [GQUAD]
Conditions: for IC50: curve of first compound; for viability, T/C: stronger effect = lower value
Outline: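 Viability of tumor cells grown as complex spheroids with endothelial and stromal cells, exposed to drug combinations. Top concentration at or near clinical Cmax (else 10 microM), diluted in half-log increments.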

[1] = second compound 0.0316 µM, first compound 0.0316 µM
[2] = second compound 0.0316 µM, first compound 0.1 µM
[3] = second compound 0.0316 µM, first compound 0.316 µM
[4] = second compound 0.0316 µM, first compound 1 µM
[5] = second compound 0.0316 µM, first compound 3.16 µM
[6] = second compound 0.0316 µM, first compound 10 µM
[7] = second compound 0.1 µM, first compound 0.0316 µM
[8] = second compound 0.1 µM, first compound 0.1 µM
[9] = second compound 0.1 µM, first compound 0.316 µM
[10] = second compound 0.1 µM, first compound 1 µM
[11] = second compound 0.1 µM, first compound 3.16 µM
[12] = second compound 0.1 µM, first compound 10 µM
[13] = second compound 0.316 µM, first compound 0.0316 µM
[14] = second compound 0.316 µM, first compound 0.1 µM
[15] = second compound 0.316 µM, first compound 0.316 µM
[16] = second compound 0.316 µM, first compound 1 µM
[17] = second compound 0.316 µM, first compound 3.16 µM
[18] = second compound 0.316 µM, first compound 10 µM
[19] = second compound 1 µM, first compound 0.0316 µM
[20] = second compound 1 µM, first compound 0.1 µM
[21] = second compound 1 µM, first compound 0.316 µM
[22] = second compound 1 µM, first compound 1 µM
[23] = second compound 1 µM, first compound 3.16 µM
[24] = second compound 1 µM, first compound 10 µM
[25] = second compound 3.16 µM, first compound 0.0316 µM
[26] = second compound 3.16 µM, first compound 0.1 µM
[27] = second compound 3.16 µM, first compound 0.316 µM
[28] = second compound 3.16 µM, first compound 1 µM
[29] = second compound 3.16 µM, first compound 3.16 µM
[30] = second compound 3.16 µM, first compound 10 µM
[31] = second compound 10 µM, first compound 0.0316 µM
[32] = second compound 10 µM, first compound 0.1 µM
[33] = second compound 10 µM, first compound 0.316 µM
[34] = second compound 10 µM, first compound 1 µM
[35] = second compound 10 µM, first compound 3.16 µM
[36] = second compound 10 µM, first compound 10 µM
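Note: spheroids exposed to compounds for 7 days before readout.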
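Throughout, for viability, T/C: percent of vehicle DMSO control viability with 100% = untreated-like growth.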

SMILES: CC(C)n1c(=O)n(C)c2cnc3cc(F)c(-c4ccc(OCCCN5CCCCC5)nc4)cc3c21 + CN(C)c1ccc(Nc2c3ccc(NC(=O)CCN4CCCC4)cc3nc3cc(NC(=O)CCN4CCCC4)ccc23)cc1
- IC50 (second compound 0.0316 µM): > 10 µM
- IC50 (second compound 0.1 µM): > 10 µM
- IC50 (second compound 0.316 µM): > 10 µM
- IC50 (second compound 1 µM): > 10 µM
- IC50 (second compound 3.16 µM): > 10 µM
- IC50 (second compound 10 µM): > 10 µM
- viability, T/C [1]: 97.9%
- viability, T/C [2]: 108%
- viability, T/C [3]: 102%
- viability, T/C [4]: 106%
- viability, T/C [5]: 104%
- viability, T/C [6]: 101%
- viability, T/C [7]: 92.5%
- viability, T/C [8]: 101%
- viability, T/C [9]: 89.5%
- viability, T/C [10]: 108%
- viability, T/C [11]: 89.4%
- viability, T/C [12]: 90.9%
- viability, T/C [13]: 100%
- viability, T/C [14]: 107%
- viability, T/C [15]: 108%
- viability, T/C [16]: 103%
- viability, T/C [17]: 88.3%
- viability, T/C [18]: 101%
- viability, T/C [19]: 106%
- viability, T/C [20]: 96.8%
- viability, T/C [21]: 99.7%
- viability, T/C [22]: 94.4%
- viability, T/C [23]: 105%
- viability, T/C [24]: 91%
- viability, T/C [25]: 113%
- viability, T/C [26]: 108%
- viability, T/C [27]: 102%
- viability, T/C [28]: 114%
- viability, T/C [29]: 110%
- viability, T/C [30]: 108%
- viability, T/C [31]: 106%
- viability, T/C [32]: 102%
- viability, T/C [33]: 110%
- viability, T/C [34]: 99.7%
- viability, T/C [35]: 97.7%
- viability, T/C [36]: 57.7%

SMILES: Cc1cccc(N(C)C(=O)C2C(O)CCN2c2nc(C)cc(C(F)(F)F)c2C#N)c1 (stereo not drawn) + CN(C)c1ccc(Nc2c3ccc(NC(=O)CCN4CCCC4)cc3nc3cc(NC(=O)CCN4CCCC4)ccc23)cc1
- IC50 (second compound 0.0316 µM): > 10 µM
- IC50 (second compound 0.1 µM): > 10 µM
- IC50 (second compound 0.316 µM): > 10 µM
- IC50 (second compound 1 µM): > 10 µM
- IC50 (second compound 3.16 µM): > 10 µM
- IC50 (second compound 10 µM): > 10 µM
- viability, T/C [1]: 110%
- viability, T/C [2]: 104%
- viability, T/C [3]: 93.3%
- viability, T/C [4]: 98.7%
- viability, T/C [5]: 78.2%
- viability, T/C [6]: 104%
- viability, T/C [7]: 105%
- viability, T/C [8]: 96.9%
- viability, T/C [9]: 103%
- viability, T/C [10]: 93.8%
- viability, T/C [11]: 96.3%
- viability, T/C [12]: 82.3%
- viability, T/C [13]: 101%
- viability, T/C [14]: 103%
- viability, T/C [15]: 84.5%
- viability, T/C [16]: 106%
- viability, T/C [17]: 90.2%
- viability, T/C [18]: 63.8%
- viability, T/C [19]: 100%
- viability, T/C [20]: 87.5%
- viability, T/C [21]: 90.5%
- viability, T/C [22]: 90.1%
- viability, T/C [23]: 94.6%
- viability, T/C [24]: 88.1%
- viability, T/C [25]: 94.2%
- viability, T/C [26]: 96.8%
- viability, T/C [27]: 96.7%
- viability, T/C [28]: 94.5%
- viability, T/C [29]: 128%
- viability, T/C [30]: 109%
- viability, T/C [31]: 91.8%
- viability, T/C [32]: 97%
- viability, T/C [33]: 110%
- viability, T/C [34]: 105%
- viability, T/C [35]: 122%
- viability, T/C [36]: 80%

SMILES: Cn1ncnc1[C@H]1c2n[nH]c(=O)c3cc(F)cc(c23)N[C@@H]1c1ccc(F)cc1 + CN(C)c1ccc(Nc2c3ccc(NC(=O)CCN4CCCC4)cc3nc3cc(NC(=O)CCN4CCCC4)ccc23)cc1
- IC50 (second compound 0.0316 µM): > 0.316 µM
- IC50 (second compound 0.1 µM): > 0.316 µM
- IC50 (second compound 0.316 µM): > 0.316 µM
- IC50 (second compound 1 µM): > 0.316 µM
- IC50 (second compound 3.16 µM): > 0.316 µM
- IC50 (second compound 10 µM): > 0.316 µM
- viability, T/C (second compound 0.0316 µM, first compound 0.000999 µM): 96.8%
- viability, T/C (second compound 0.0316 µM, first compound 0.00316 µM): 92.6%
- viability, T/C (second compound 0.0316 µM, first compound 0.00999 µM): 101%
- viability, T/C [1]: 104%
- viability, T/C (second compound 0.0316 µM, first compound 0.0999 µM): 112%
- viability, T/C [3]: 110%
- viability, T/C (second compound 0.1 µM, first compound 0.000999 µM): 127%
- viability, T/C (second compound 0.1 µM, first compound 0.00316 µM): 82.7%
- viability, T/C (second compound 0.1 µM, first compound 0.00999 µM): 88.7%
- viability, T/C [7]: 105%
- viability, T/C (second compound 0.1 µM, first compound 0.0999 µM): 101%
- viability, T/C [9]: 98.8%
- viability, T/C (second compound 0.316 µM, first compound 0.000999 µM): 109%
- viability, T/C (second compound 0.316 µM, first compound 0.00316 µM): 77.7%
- viability, T/C (second compound 0.316 µM, first compound 0.00999 µM): 78.9%
- viability, T/C [13]: 89.3%
- viability, T/C (second compound 0.316 µM, first compound 0.0999 µM): 94.3%
- viability, T/C [15]: 83.3%
- viability, T/C (second compound 1 µM, first compound 0.000999 µM): 109%
- viability, T/C (second compound 1 µM, first compound 0.00316 µM): 108%
- viability, T/C (second compound 1 µM, first compound 0.00999 µM): 100%
- viability, T/C [19]: 94.9%
- viability, T/C (second compound 1 µM, first compound 0.0999 µM): 107%
- viability, T/C [21]: 89.1%
- viability, T/C (second compound 3.16 µM, first compound 0.000999 µM): 85.5%
- viability, T/C (second compound 3.16 µM, first compound 0.00316 µM): 81%
- viability, T/C (second compound 3.16 µM, first compound 0.00999 µM): 101%
- viability, T/C [25]: 90.8%
- viability, T/C (second compound 3.16 µM, first compound 0.0999 µM): 92.8%
- viability, T/C [27]: 102%
- viability, T/C (second compound 10 µM, first compound 0.000999 µM): 81.4%
- viability, T/C (second compound 10 µM, first compound 0.00316 µM): 84.8%
- viability, T/C (second compound 10 µM, first compound 0.00999 µM): 91.6%
- viability, T/C [31]: 106%
- viability, T/C (second compound 10 µM, first compound 0.0999 µM): 101%
- viability, T/C [33]: 101%

SMILES: O=C(c1cc(Cc2n[nH]c(=O)c3ccccc23)ccc1F)N1CCN(C(=O)C2CC2)CC1 + CN(C)c1ccc(Nc2c3ccc(NC(=O)CCN4CCCC4)cc3nc3cc(NC(=O)CCN4CCCC4)ccc23)cc1
- IC50 (second compound 0.0316 µM): > 10 µM
- IC50 (second compound 0.1 µM): > 10 µM
- IC50 (second compound 0.316 µM): > 10 µM
- IC50 (second compound 1 µM): > 10 µM
- IC50 (second compound 3.16 µM): > 10 µM
- IC50 (second compound 10 µM): > 10 µM
- viability, T/C [1]: 102%
- viability, T/C [2]: 91.5%
- viability, T/C [3]: 94.2%
- viability, T/C [4]: 97.4%
- viability, T/C [5]: 105%
- viability, T/C [6]: 96.8%
- viability, T/C [7]: 128%
- viability, T/C [8]: 107%
- viability, T/C [9]: 96.9%
- viability, T/C [10]: 100%
- viability, T/C [11]: 89.7%
- viability, T/C [12]: 90.7%
- viability, T/C [13]: 102%
- viability, T/C [14]: 92.6%
- viability, T/C [15]: 83.4%
- viability, T/C [16]: 81.5%
- viability, T/C [17]: 91.2%
- viability, T/C [18]: 109%
- viability, T/C [19]: 108%
- viability, T/C [20]: 88%
- viability, T/C [21]: 88.1%
- viability, T/C [22]: 74.9%
- viability, T/C [23]: 74.7%
- viability, T/C [24]: 92.4%
- viability, T/C [25]: 91.6%
- viability, T/C [26]: 83.5%
- viability, T/C [27]: 99.3%
- viability, T/C [28]: 101%
- viability, T/C [29]: 86.5%
- viability, T/C [30]: 89.5%
- viability, T/C [31]: 99%
- viability, T/C [32]: 88.4%
- viability, T/C [33]: 105%
- viability, T/C [34]: 75.9%
- viability, T/C [35]: 108%
- viability, T/C [36]: 119%
